{"source": "patent US8183283B2", "about": "“Dendrite elongation inhibitor for melanocyte and skin preparation for external use containing the same” (Pola Chemical Industries Inc., priority 2002, dated 2012)", "tested_on": "Normal human melanocyte", "assay": "Inhibitory action on the elongation of dendrites using human melanocytes", "format": "cell-based", "description": "According to a method shown below, inhibitory action on the elongation of dendrites was examined using human melanocytes. (Reagent, etc.) Cells, basal media, and amplification additives were purchased from KURABO INDUSTRIES LTD.\n(Cell) Normal human melanocyte\n(Medium) Basal medium (Medium 1545) supplemented with reagents described below\n(Reagent) Amplification additive: bovine pituitary extract (BPE) (final concentration of 0.4% v/v in the medium), fetal bovine serum (FBS) (final concentration of 0.5% v/v in the medium), human recombinant basic fibroblast growth factor (rFGF-B) (final concentration of 3 ng/ml in the medium), hydrocortisone (final concentration of 0.18 μg/ml in the medium), insulin (final concentration 5 μg/ml in the medium), transferrin (final concentration of 5 μg/ml in the medium), phorbol 12-myristate 13-acetate (PMA) (final concentration of 10 ng/ml in the medium), heparin (final concentration of 3 μg/ml in the medium), and PSA solution (mixture solution of penicillin concentration of 50,000 Unit/ml, streptomycin concentration of 50 μg/ml, and amphotericin B concentration of 12.5 μg/ml; 1-ml addition with respect to 500 ml of the medium) (Method) […]"}
{"smiles": "COc1ccc(-c2oc3cc(O)c(OC)c(O)c3c(=O)c2OC)cc1O", "note": "[Centaureidin, 5,7-dihydroxy-3,6-dimethoxy-2-(5-hydroxy-4-methoxyphenyl)-4H-1-benzopyran-4-on]", "values": [{"measurement": "Inhibition against the elongation of dendrites (in words)", "setting": "24 hours after addition of the sample solution, versus control", "value": "elongation is inhibited"}, {"measurement": "Length of dendrite", "setting": "sample solution with 100 μg/ml Centaureidin, 50 μl added to 200 μl medium, observed 24 hours after addition, growth factor-supplemented medium", "value": "26 ± 8", "unit": "μm"}]}
